According to patent US20080199489A1, “SKIN TREATMENT FORMULATIONS AND METHOD” (priority 2007, published 2008):

How the values were obtained:
[1] = tested on: chronic rosacea; test: Example 2: treatment of a patient with chronic rosacea; type: in vivo, human; settings: person, topical
Excerpt: A person suffered from chronic rosacea. Medical practitioner proscribed regular use of a steroidal cortisone anti-inflammatory cream. […] Patient was concerned about side effects of long term cortisone application. […] Improvement however could not be maintained even with regular treatment several times weekly.

[2] = Ozone output of ozonized formulations tested with a commercial ozone sensor; type: physicochemical; settings: added to seaweed-containing ozonized formulations
Method: Cholecalciferol, vitamin D3, also known as the sunshine vitamin, aids in tissue regeneration and healing. […] For this reason it was determined that a certain amount of vitamin D3 increases the effectiveness of formulations containing seaweeds, especially those containing callophycus serratus.
The mask is used after the water broth cleansing and activating serum activation steps. As for the serum the inventor has observed a synergistic efficacy by using the combination of treatments. Also as for the serum the exact mechanism is yet to be understood, but the mask provides yet a third matrix for the preparation, storage and application of the active ingredients. As for the formulations previously described the mask is prepared from a selection of ingredients form each of the defined categories of teas, Algaes and seaweeds, herbal plant extracts and oils, flower extracts, fruit extracts, vegetable extracts, butters and oils, and finally other additives as indicated in the formulation lists below. […] The mask is prepared from freeze dried and powdered extracts of the indicated ingredients. The water broth described above is also an ingredient in the mask. The other ingredients are added as preservatives, solvents, and viscosity control agents and are not part of the active ingredients, but rather are a delivery system. […]

[3] = tested on: basal cell carcinoma and pre-cancerous inflammation; test: Example 1: treatment of a patient with basal cell carcinoma and pre-cancerous inflammation; type: in vivo, human
Excerpt: The treatment procedure comprises application of each of the above described formulations in the order of cleansing with the water broth, activating with both the water broth and the activating serum, treatment with the mask formulation that entraps active ingredients against the affected skin and finally sealing and protecting the treated area with the cream. The affected area is first washed using the water broth. Activating serum is then applied to the skin. The water broth solution is put into the dispensing cup of aerosol generating device such as sold under the brand name Dermoxyzone Nebulizing Nanoparticle Infuser™, which infuses the nanoparticle sizes of the ozonated water broth into the epidermal layer. Absorption is optimized due to the activating serum's ability to pull moisture into the epidermis in greater amounts than could be absorbed without application of the activating serum. The Gel is not completely removed before applying the mask. The gel is wiped down with a cotton pad, leaving a residue on the skin. The mask is then applied over the residual gel covered area of the skin. The mixing serum and the powdered mask base are blended in a ratio of one to one, by volume, to form the mask just prior to use. For the treatment of one cheek for example, one tablespoon each of the powder and mixing serum are typically used. […]

Question: With `C[C@]12CCC(=O)C=C1CC[C@@H]1[C@@H]2C(=O)C[C@@]2(C)[C@H]1CC[C@]2(O)C(=O)CO` [1% cortisone, cortisone] as the compound, how does the “effect on rosacea inflammation” value [1] read?
Answer: The value was “controlled most inflammation outbreaks”.

Question: With `C=C1CC[C@H](O)C/C1=C/C=C1\CCC[C@]2(C)[C@@H]([C@H](C)CCCC(C)C)CC[C@@H]12` [Cholecalciferol] as the compound, how does the “ozone output / amount of ozone released from ozonated formulations” value [2] read?
Answer: Its value is “increased the ozone output”.

Question: What about the “ozone output / amount of ozone released from ozonated formulations” value ([2]; listed as cholecalciferol) of the same compound?
Answer: Its value is “increased significantly”.

Question: What does the source list for `N#N` [liquid nitrogen]?
Answer: adverse effect of treatment ([3]; conventional treatment by medical practitioner): scarring; outcome of cancer / cancerous tissue ([3]; person): cancerous tissue reappeared within a few months of treatment
